Source: patent US20110318768A1, “METHOD FOR DETERMINING SENSITIVITY OF TUMOR CELLS TO TYROSINE KINASE INHIBITOR AND COMPUTER PROGRAM PRODUCT” (SYSMEX CORPORATION, priority 2010, published 2011)

Key:
Assay in all cases: Tyrosine kinase activity inhibition rate in cell membrane fraction (Poly-Glu4-Tyr substrate)
Format in all cases: biochemical
[1] = test system: tyrosine kinase in cell membrane fraction of MDA-MB-468; conditions: 25 μM kinase inhibitor, 25 μM ATP
Method: (§1) Breast cancer cell lines shown in Table 3 were cultured in a 150 mm dish so as to be about 80% confluent, the cells were recovered using PBS and a scraper, and a cell pellet was obtained by centrifugal operation (900×g, for 5 minutes, at 4° C.). The pellet was frozen with liquid nitrogen and stored at −80° C. until preparation of the measurement sample.
(§2) 500 μl of NP40 (−) solubilized buffer (20 mM HEPES (pH 7.4)), (w/v) % glycerol, 0.2% protease inhibitor cocktail (#P8340: Sigma-Aldrich (product composition: 104 mM AEBSF, 80 μM aprotinin, 4 mM bestatin, 1.4 mM E-64, 2 mM leupeptin, 1.5 mM Pepstatin A), 50 mM NaF and 200 μM Na3VO4) was added to the cell pellet, followed by stirring for 2 seconds three times using a vortex mixer. After being allowed to stand for 10 minutes, the soluble fraction was removed by centrifugal operation (at 20000×g, for 30 minutes, at 4° C.). The obtained pellet was resuspended in 500 μl of NP40 (−) solubilized buffer, the soluble fraction was again removed by centrifugal operation (at 20000×g, for 20 minutes, at 4° C.), and the pellet was washed. The pellet was resuspended by adding 500 μl of NP40 (+) solubilized buffer (a buffer prepared by adding NP-40 to the NP40 (−) solubilized buffer at a final concentration of 1%) to the pellet, pipetting fifty times, and vortexing for 2 seconds three times. After being allowed to stand for 10 minutes, a cell membrane fraction containing a membrane protein was obtained by centrifugal operation (at 20000×g, for 40 minutes, at 4° C.). The protein concentration of the fraction was measured by DC protein assay (#500-0116 JA: Bio-Rad) and the fraction was used as a sample for kinase activity measurement. The sample was frozen with liquid nitrogen and stored at −80° C. until used for the following kinase activity measurement.
(§3) NeutrAvidin Coated Plates (HBC) (96 white plate; #15509: Pierce) were washed three times with 300 μl of TBS-T (20 mM Tris-HCl (pH 7.4)), 150 mM NaCl, 0.1% Tween), and then 100 μl of Poly-Glu4-Tyr biotin conjugate (#12440: Upstate) which had been diluted to 1 μg/ml with TBS (20 mM Tris-HCl (pH 7.4), 150 mM NaCl) was added to the wells. After shaking at 37° C. and 400 rpm for 90 minutes, the wells were washed with 300 μl of TBS-T three times and a measuring plate was obtained.
(§4) The measurement sample was diluted with a kinase buffer (20 mM HEPES (pH 7.4), 25 mM MgCl2, 1.25 mM MnCl2, 250 μM Na3VO4, 12.5 (w/v) % glycerol) so as to adjust the protein concentration to 6.25 μg/ml. The diluted measurement sample was transferred to wells of a 96 well V bottom plate. A DMSO solution (inhibitor concentration: 5 mM) containing one type of tyrosine kinase inhibitors (Inhibitors 1 to 10 shown in Table 6) was added to the wells at a ratio of 1:160 based on the diluted measurement sample solution, followed by mixing thereof. As the control, DMSO was added to the diluted measurement sample at the same ratio as the solution of the inhibitor. The used tyrosine kinase inhibitors are represented as Inhibitors 1 to 10 in Table 6.
(§5) After addition of the inhibitors, a mixed solution of the measurement sample and the inhibitor was allowed to stand at room temperature for 10 minutes. 40 μl of the mixed solution was transferred to wells of the measuring plate and 10 μl of an ATP solution (20 mM HEPES (pH 7.4), […]) as the phosphate group donor was added to the wells.
(§6) The composition of the solution in the wells is as follows: protein concentration: 5 μg/ml, 20 mM HEPES (pH 7.4), 20 mM MgCl2, 1 mM MnCl2, 200 μM Na3VO4, 10 (w/v) % glycerol, 25 μM ATP, 25 μM kinase inhibitor.
(§7) After shaking the measuring plate at 37° C. and 400 rpm for 60 minutes, the solution was removed from the measuring plate, and the wells were washed with 300 μl of TBS-T three times. 100 μl of Starting Block T20 (TBS) (#37543: Pierce) as a blocking solution was added to the wells, followed by blocking at 37° C. and 400 rpm for 10 minutes. The blocking solution was removed from the measuring plate. […]

[2] = test system: tyrosine kinase in cell membrane fraction of BT-483; conditions: 25 μM kinase inhibitor, 25 μM ATP
Method: as §1, §2, §3, §4, §5, §6, §7

[3] = test system: tyrosine kinase in cell membrane fraction of HCC1954; conditions: 25 μM kinase inhibitor, 25 μM ATP
Method: as §1, §2, §3, §4, §5, §6, §7

[4] = test system: tyrosine kinase in cell membrane fraction of ZR-75-30; conditions: 25 μM kinase inhibitor, 25 μM ATP
Method: as §1, §2, §3, §4, §5, §6, §7

[5] = test system: tyrosine kinase in cell membrane fraction of MDA-MB-435S; conditions: 25 μM kinase inhibitor, 25 μM ATP
Method: as §1, §2, §3, §4, §5, §6, §7

[6] = test system: tyrosine kinase in cell membrane fraction of UACC812; conditions: UACC812; 25 μM kinase inhibitor, 25 μM ATP
Method: as §1, §2, §3, §4, §5, §6, §7

[7] = test system: tyrosine kinase in cell membrane fraction of MDA-MB-453; conditions: 25 μM kinase inhibitor, 25 μM ATP
Method: as §1, §2, §3, §4, §5, §6, §7

[8] = test system: tyrosine kinase in cell membrane fraction of SK-BR-3; conditions: 25 μM kinase inhibitor, 25 μM ATP
Method: as §1, §2, §3, §4, §5, §6, §7

[9] = test system: tyrosine kinase in cell membrane fraction of MDA-MB-415; conditions: 25 μM kinase inhibitor, 25 μM ATP
Method: as §1, §2, §3, §4, §5, §6, §7

[10] = test system: tyrosine kinase in cell membrane fraction of CAMA-1; conditions: 25 μM kinase inhibitor, 25 μM ATP
Method: as §1, §2, §3, §4, §5, §6, §7

[11] = test system: tyrosine kinase in cell membrane fraction of HCC202; conditions: 25 μM kinase inhibitor, 25 μM ATP
Method: as §1, §2, §3, §4, §5, §6, §7

SMILES	Inhibition rate [1] [%]	Inhibition rate [2] [%]	Inhibition rate [3] [%]	Inhibition rate [4] [%]	Inhibition rate [5] [%]	Inhibition rate [6] [%]	Inhibition rate [7] [%]	Inhibition rate [8] [%]	Inhibition rate [9] [%]	Inhibition rate [10] [%]	Inhibition rate [11] [%]
CS(=O)(=O)CCNCc1nc(-c2ccc3ncnc(Nc4ccc(OCc5cccc(F)c5)c(Cl)c4)c3c2)cs1.Cl.Cl [Inhibitor 5, N-[3-chloro-4-[(3-fluorophenyl)methoxy]phenyl]-6-[2-[[[2-(methylsulfonyl)ethyl]amino]methyl]-4-thiazolyl]-4-quinazolineamine dihydrochloride]	75.4	66.9	59.5	64.4	57.8	80.4	70.4	75.7	48.1	48.6	66.2
COc1cc2ncnc(Nc3cccc(Cl)c3)c2cc1OC [Inhibitor 1]	77.4	54.7	39.4	20.1	33.4	49.3	39.8	46.8	41.3	14.3	29.7
COc1cc2ncnc(Nc3ccc(OCc4ccccc4)cc3)c2cc1OC [Inhibitor 3, 4-(4-benzyloxyanilino)-6,7-dimethoxyquinazoline]	76.9	68.5	31.8	37.2	37.2	66.6	36.9	44.1	50.5	16.7	24.5
Cc1[nH]c(/C=C2\C(=O)Nc3ccc(S(=O)(=O)N(C)c4cccc(Cl)c4)cc32)c(C)c1C(=O)N1CCN(C)CC1 [Inhibitor 9]	65.0	68.6	65.7	65.1	80.3	78.1	64.4	66.1	56.7	60.2	69.1
Cc1cc(F)c(Nc2ncnc3cc(OCc4ccccc4)ccc23)cc1O.Cl [Inhibitor 8]	7.1	27.2	4.1	10.1	9.8	21.6	17.7	25.9	14.0	8.1	11.9
COc1cc2c(cc1OC)-c1[nH]nc(Nc3cccc(F)c3)c1C2 [Inhibitor 6]	1.4	62.9	41.5	27.0	40.6	61.4	28.9	45.3	50.9	15.9	27.1
CN1CCC(Nc2ncc3ncnc(Nc4ccc(F)c(Cl)c4)c3n2)CC1 [Inhibitor 2]	52.1	40.3	19.7	4.4	3.8	30.3	19.9	18.8	25.0	−3.4	7.7
CCCNC(=O)Nc1ccc(Oc2ncnc3cc(OC)c(OC)cc23)cc1Cl [Inhibitor 7]	18.5	17.3	17.6	18.5	10.5	28.5	29.4	45.0	25.1	3.4	33.4
CN(C)c1cc2c(Nc3ccc4c(cnn4Cc4ccccc4)c3)ncnc2cn1 [Inhibitor 4, N4-(1-benzyl-1H-indazol-5-yl)-N6,N6-dimethyl-pyrido-[3,4-d]-pyrimidine-4,6-diamine]	71.6	52.7	23.2	20.9	22.6	59.4	27.9	31.4	19.6	7.3	21.3
